{"source": "patent US7977363B2", "about": "“Biphenyl-thiazolo-carboxamides” (Bayer Cropscience AG, priority 2004, dated 2011)", "data": [{"system": "Pyrenophora teres", "assay": "Pyrenophora teres Test (Barley)/Protective", "type": "in vivo", "conditions": "protective, 500 g/ha, evaluated 7 days after inoculation", "description": "[table] To produce a suitable preparation of active compound, 1 part by weight of active compound is mixed with the stated amounts of solvent and emulsifier, and the concentrate is diluted with water to the desired concentration. In order to test the protective activity, young plants are sprayed with the active compound preparation at the stated application rate. After the spray coating dries, the plants are sprayed with a conidial suspension of Pyrenophora teres. The plants remain in an incubation cabinet for 48 hours at 20° C. and 100% relative humidity. The plants are then placed in a greenhouse at a temperature of approx. 20° C. and a relative humidity of 80%. The results are evaluated 7 days after the inoculation. An efficacy of 0% corresponds to that of the control, while an efficacy of 100% means that no infestation is observed.", "units": {"Efficacy in %": "%"}, "values": [{"compound": "Cc1nc(C(F)F)c(C(=O)Nc2ccc(F)cc2-c2ccc(Cl)c(Cl)c2)s1", "note": "[drawing 74]", "Efficacy in %": 100}, {"compound": "Cc1nc(C(F)F)c(C(=O)Nc2c(F)cccc2-c2ccc(Cl)c(F)c2)s1", "note": "[drawing 75]", "Efficacy in %": 100}, {"compound": "Cc1nc(C(F)(F)F)c(C(=O)Nc2ccc(F)cc2-c2ccc(Cl)c(F)c2)s1", "note": "[drawing 76]", "Efficacy in %": 100}, {"compound": "Cc1nc(C(F)F)c(C(=O)Nc2ccc(F)cc2-c2ccc(Cl)c(F)c2)s1", "note": "[drawing 77]", "Efficacy in %": 100}, {"compound": "Cc1nc(C(F)F)c(C(=O)Nc2ccc(F)cc2-c2ccc(Cl)c(C)c2)s1", "note": "[drawing 78]", "Efficacy in %": 100}, {"compound": "Cc1nc(C(F)F)c(C(=O)Nc2ccc(F)cc2-c2cccc(C)c2F)s1", "note": "[drawing 79]", "Efficacy in %": 100}]}, {"system": "apple scab fungus Venturia inaequalis", "assay": "Venturia Test (Apple)/Protective", "type": "in vivo", "conditions": "240 h, protective, evaluated 10 days after inoculation, read-out: Efficacy in %", "description": "(§1) [table] To produce a suitable preparation of active compound, 1 part by weight of active compound is mixed with the stated amounts of solvent and emulsifier, and the concentrate is diluted with water to the desired concentration. In order to test the protective activity, young plants are sprayed with the active compound preparation at the stated application rate. After the spray coating dries, the plants are inoculated with an aqueous conidial suspension of the apple scab fungus Venturia inaequalis and then remain in an incubation cabinet for 1 day at approx. 20° C. and 100% relative humidity. The plants are then placed in the greenhouse at approx. 21° C. and at a relative humidity of approx. 90%. The results are evaluated 10 days after the inoculation. An efficacy of 0% corresponds to that of the control, while an efficacy of 100% means that no infestation is observed.", "units": {"pest or weed control at 100 g/ha": "%"}, "values": [{"compound": "Cc1nc(C(F)F)c(C(=O)Nc2ccc(F)cc2-c2ccc(Cl)c(Cl)c2)s1", "note": "[drawing 56]", "pest or weed control at 100 g/ha": 100}, {"compound": "Cc1nc(C(F)F)c(C(=O)Nc2c(F)cccc2-c2ccc(Cl)c(Cl)c2)s1", "note": "[drawing 57]", "pest or weed control at 100 g/ha": 100}, {"compound": "Cc1nc(C(F)(F)F)c(C(=O)Nc2ccc(F)cc2-c2ccc(Cl)c(Cl)c2)s1", "note": "[drawing 58]", "pest or weed control at 100 g/ha": 100}, {"compound": "Cc1nc(C(F)(F)F)c(C(=O)Nc2c(F)cccc2-c2ccc(Cl)c(Cl)c2)s1", "note": "[drawing 59]", "pest or weed control at 100 g/ha": 100}, {"compound": "Cc1nc(C(F)F)c(C(=O)Nc2c(F)cccc2-c2ccc(Cl)c(F)c2)s1", "note": "[drawing 60]", "pest or weed control at 100 g/ha": 100}, {"compound": "Cc1nc(C(F)(F)F)c(C(=O)Nc2ccc(F)cc2-c2ccc(Cl)c(F)c2)s1", "note": "[drawing 61]", "pest or weed control at 100 g/ha": 100}, {"compound": "Cc1nc(C(F)(F)F)c(C(=O)Nc2ccc(F)cc2-c2ccc(Cl)c(C)c2)s1", "note": "[drawing 62]", "pest or weed control at 100 g/ha": 100}, {"compound": "Cc1nc(C(F)F)c(C(=O)Nc2ccc(F)cc2-c2ccc(Cl)c(C)c2)s1", "note": "[drawing 63]", "pest or weed control at 100 g/ha": 100}, {"compound": "Cc1nc(C(F)F)c(C(=O)Nc2ccc(F)cc2-c2cccc(C)c2F)s1", "note": "[drawing 64]", "pest or weed control at 100 g/ha": 98}]}, {"system": "Alternaria solani", "assay": "Alternaria Test (Tomato)/Protective", "type": "in vivo", "conditions": "protective, 750 g/ha, evaluated 7 days after inoculation", "description": "[table] To produce a suitable preparation of active compound, 1 part by weight of active compound is mixed with the stated amounts of solvent and emulsifier, and the concentrate is diluted with water to the desired concentration. In order to test the protective activity, young tomato plants are sprayed with the active compound preparation at the stated application rate. One day after treatment, the plants are inoculated with a spore suspension of Alternaria solani and then remain for 24 hours at 100% relative humidity and 20° C. The plants are then placed into in environment of 96% relative humidity at a temperature of 20° C. The results are evaluated 7 days after the inoculation. An efficacy of 0% corresponds to that of the control, while an efficacy of 100% means that no infestation is observed.", "units": {"Efficacy in %": "%"}, "values": [{"compound": "Cc1nc(C(F)F)c(C(=O)Nc2c(F)cccc2-c2ccc(Cl)c(F)c2)s1", "note": "[drawing 80]", "Efficacy in %": 100}, {"compound": "Cc1nc(C(F)(F)F)c(C(=O)Nc2ccc(F)cc2-c2ccc(Cl)c(F)c2)s1", "note": "[drawing 81]", "Efficacy in %": 100}, {"compound": "Cc1nc(C(F)F)c(C(=O)Nc2ccc(F)cc2-c2ccc(Cl)c(F)c2)s1", "note": "[drawing 82]", "Efficacy in %": 98}]}, {"system": "Botrytis cinerea", "assay": "Botrytis Test (Bean)/Protective", "type": "in vivo", "conditions": "48 h, protective, evaluated 2 days after inoculation, read-out: Efficacy in %", "description": "[table] To produce a suitable preparation of active compound, 1 part by weight of active compound is mixed with the stated amounts of solvent and emulsifier, and the concentrate is diluted with water to the desired concentration. In order to test the protective activity, young plants are sprayed with the active compound preparation at the stated application rate. After the spray coating dries, 2 small pieces of agar that are infested with Botrytis cinerea are placed on each leaf. The inoculated plants are placed in a darkened chamber at 20° C. and 100% relative humidity. The size of the infestation blotches on the leaves is evaluated 2 days after the inoculation. An efficacy of 0% corresponds to that of the control, while an efficacy of 100% means that no infestation is observed.", "units": {"pest or weed control at 500 g/ha": "%"}, "values": [{"compound": "Cc1nc(C(F)F)c(C(=O)Nc2ccc(F)cc2-c2ccc(Cl)c(Cl)c2)s1", "note": "[drawing 65]", "pest or weed control at 500 g/ha": 100}, {"compound": "Cc1nc(C(F)F)c(C(=O)Nc2c(F)cccc2-c2ccc(Cl)c(Cl)c2)s1", "note": "[drawing 66]", "pest or weed control at 500 g/ha": 100}, {"compound": "Cc1nc(C(F)(F)F)c(C(=O)Nc2ccc(F)cc2-c2ccc(Cl)c(Cl)c2)s1", "note": "[drawing 67]", "pest or weed control at 500 g/ha": 99}, {"compound": "Cc1nc(C(F)(F)F)c(C(=O)Nc2c(F)cccc2-c2ccc(Cl)c(Cl)c2)s1", "note": "[drawing 68]", "pest or weed control at 500 g/ha": 98}, {"compound": "Cc1nc(C(F)F)c(C(=O)Nc2c(F)cccc2-c2ccc(Cl)c(F)c2)s1", "note": "[drawing 69]", "pest or weed control at 500 g/ha": 100}, {"compound": "Cc1nc(C(F)(F)F)c(C(=O)Nc2ccc(F)cc2-c2ccc(Cl)c(F)c2)s1", "note": "[drawing 70]", "pest or weed control at 500 g/ha": 100}, {"compound": "Cc1nc(C(F)(F)F)c(C(=O)Nc2ccc(F)cc2-c2ccc(Cl)c(C)c2)s1", "note": "[drawing 71]", "pest or weed control at 500 g/ha": 100}, {"compound": "Cc1nc(C(F)F)c(C(=O)Nc2ccc(F)cc2-c2ccc(Cl)c(C)c2)s1", "note": "[drawing 72]", "pest or weed control at 500 g/ha": 100}, {"compound": "Cc1nc(C(F)F)c(C(=O)Nc2ccc(F)cc2-c2cccc(C)c2F)s1", "note": "[drawing 73]", "pest or weed control at 500 g/ha": 98}]}, {"system": "not listed separately", "assay": "Log P determination by HPLC on reversed-phase column (EEC Directive 79/831, Annex V.A8)", "type": "physicochemical", "conditions": "reversed-phase HPLC column (C18), pH 2.3; read-out: log P (pH 2.3)", "description": "(§2) The determination of the Log P values occurred according to EEC Directive 79/831, Annex V.A8 using HPLC (High Performance Liquid Chromatography) on a reversed-phase column (C 18). Temperature: 43° C. Eluents for determination in the acidic range (pH 2.3): 0.1% aqueous phosphoric acid, acetonitrile; linear gradient of 10% acetonitrile to 90% acetonitrile. Calibration took place using unbranched alkane-2-ones (with 3 to 16 carbon atoms) with known Log P values (the Log P values were determined on the basis of the retention times by way of linear interpolation between two consecutive alkanones).", "values": [{"compound": "Cc1nc(C(F)(F)F)c(C(=O)Nc2ccc(F)cc2-c2ccc(Cl)c(F)c2)s1", "note": "[Compound 2.18, N-(4′-chloro-3′,5-difluorobiphenyl-2-yl)-2-methyl-4-(trifluoromethyl)-1,3-thiazole-5-carboxamide]", "chromatographic logP": 3.67}, {"compound": "Nc1ccc(F)cc1-c1ccc(Cl)c(F)c1", "note": "[III-1, 4′-chloro-3′,5-difluorobiphenyl-2-amine]", "chromatographic logP": 3.18}]}, {"system": "not listed separately", "assay": "Log P determination by HPLC on reversed-phase column (EEC Directive 79/831, Annex V.A8)", "type": "physicochemical", "conditions": "reversed-phase HPLC column (C18); HPLC, C18 reversed phase, 43° C., acidic range (pH 2.3); read-out: Log P", "description": "as §2", "values": [{"compound": "Cc1nc(C(F)(F)F)c(C(=O)Nc2ccc(F)cc2-c2ccc(Cl)c(Cl)c2)s1", "note": "[Compound 2.11, N-(3′,4′-dichloro-5-fluorobiphenyl-2-yl)-2-methyl-4-(trifluoromethyl)-1,3-thiazole-5-carboxamide]", "chromatographic logP": 3.93}, {"compound": "Cc1nc(C(F)F)c(C(=O)Nc2ccc(F)cc2-c2ccc(Cl)c(Cl)c2)s1", "note": "[Compound 2.12]", "chromatographic logP": 3.63}, {"compound": "Cc1nc(C(F)F)c(C(=O)Nc2c(F)cccc2-c2ccc(Cl)c(Cl)c2)s1", "note": "[Compound 2.13]", "chromatographic logP": 3.43}, {"compound": "Cc1nc(C(F)(F)F)c(C(=O)Nc2c(F)cccc2-c2ccc(Cl)c(Cl)c2)s1", "note": "[Compound 2.14]", "chromatographic logP": 3.68}, {"compound": "Cc1nc(C(F)F)c(C(=O)Nc2c(F)cccc2-c2ccc(Cl)c(F)c2)s1", "note": "[Compound 2.16]", "chromatographic logP": 3.16}, {"compound": "Cc1nc(C(F)F)c(C(=O)Nc2ccc(F)cc2-c2ccc(Cl)c(F)c2)s1", "note": "[Compound 2.17]", "chromatographic logP": 3.36}, {"compound": "Cc1nc(C(F)(F)F)c(C(=O)Nc2ccc(F)cc2-c2ccc(Cl)c(C)c2)s1", "note": "[Compound 2.20]", "chromatographic logP": 3.99}, {"compound": "Cc1nc(C(F)F)c(C(=O)Nc2ccc(F)cc2-c2ccc(Cl)c(C)c2)s1", "note": "[Compound 2.21]", "chromatographic logP": 3.68}]}, {"system": "Podosphaera leucotricha", "assay": "Podosphaera Test (Apple)/Protective", "type": "in vivo", "conditions": "240 h, protective, evaluated 10 days after inoculation, read-out: Efficacy in %", "description": "as §1, with “spore” for “conidial”, “Podosphaera leucotricha.” for “the apple scab fungus Venturia inaequalis and then remain in an incubation cabinet for 1 day at approx. 20° C. and 100% relative humidity.”, “23°” for “21°”, “70%.” for “90%.”", "units": {"pest or weed control at 100 g/ha": "%"}, "values": [{"compound": "Cc1nc(C(F)F)c(C(=O)Nc2ccc(F)cc2-c2ccc(Cl)c(Cl)c2)s1", "note": "[drawing 47]", "pest or weed control at 100 g/ha": 100}, {"compound": "Cc1nc(C(F)F)c(C(=O)Nc2c(F)cccc2-c2ccc(Cl)c(Cl)c2)s1", "note": "[drawing 48]", "pest or weed control at 100 g/ha": 100}, {"compound": "Cc1nc(C(F)(F)F)c(C(=O)Nc2ccc(F)cc2-c2ccc(Cl)c(Cl)c2)s1", "note": "[drawing 49]", "pest or weed control at 100 g/ha": 100}, {"compound": "Cc1nc(C(F)(F)F)c(C(=O)Nc2c(F)cccc2-c2ccc(Cl)c(Cl)c2)s1", "note": "[drawing 50]", "pest or weed control at 100 g/ha": 100}, {"compound": "Cc1nc(C(F)F)c(C(=O)Nc2c(F)cccc2-c2ccc(Cl)c(F)c2)s1", "note": "[drawing 51]", "pest or weed control at 100 g/ha": 100}, {"compound": "Cc1nc(C(F)(F)F)c(C(=O)Nc2ccc(F)cc2-c2ccc(Cl)c(F)c2)s1", "note": "[drawing 52]", "pest or weed control at 100 g/ha": 100}, {"compound": "Cc1nc(C(F)(F)F)c(C(=O)Nc2ccc(F)cc2-c2ccc(Cl)c(C)c2)s1", "note": "[drawing 53]", "pest or weed control at 100 g/ha": 100}, {"compound": "Cc1nc(C(F)F)c(C(=O)Nc2ccc(F)cc2-c2ccc(Cl)c(C)c2)s1", "note": "[drawing 54]", "pest or weed control at 100 g/ha": 100}, {"compound": "Cc1nc(C(F)F)c(C(=O)Nc2ccc(F)cc2-c2cccc(C)c2F)s1", "note": "[drawing 55]", "pest or weed control at 100 g/ha": 94}]}]}
